# From patent US20170266292A1, “LIPIDIC COMPOUND-TELODENDRIMER HYBRID NANOPARTICLES AND METHODS OF MAKING AND USES THEREOF” (The Research Foundation for The State University of New York, priority 2016, published 2017)
# How the values were obtained:
# [1] = test system: orthotopic human U87 GBM tumors; assay: Intracranial distribution of proteins after CED; format: in vivo, mouse; conditions: one day after CED; protein/NP 1/10; confocal microscopy
# Method: Intracranial Orthotopic GBM Tumor Model. Female athymic nude mice (NCRNU-Sp/Sp), 6-7 weeks age, were purchased from Taconic Biosciences (Germantown, N.Y.). All animals were kept under pathogen-free conditions according to Association for Assessment and Accreditation of Laboratory Animal Care (AAALAC) guidelines and were allowed to acclimatize for at least 4 days prior to any experiments. All animal experiments were performed in compliance with institutional guidelines and according to protocol approved by the Committee for the Humane Use of Animals of State University of New York Upstate Medical University. Athymic nude mice were anesthetized with ketamine/xylazine (80 mg/kg: 5 mg/kg) through an intraperitoneal injection. The mice were then placed in a stereotactic head frame. Using aseptic technique, a midline skin incision was made a 0.5 mm anterior to bregma and 2.5 mm lateral of midline, a burr hole will be placed. A 25G needle delivered U87 (GBM) tumor cells 3.2 mm deep via the stereotactic head frame. Approximately 5×10^4 cells (in 1 μL of PBS) will be injected. This injection will occur over the course of 5 minutes. […]
# CED Administration of Protein Formulations. […] For bioluminescence image analysis, the associated bioluminescence intensities were determined by Living Image software (Caliper Life Sciences) using operator-defined regions of interest (ROI) measurements.
# [2] = Zeta potential of lipidoid-telodendrimer hybrid NPs; format: physicochemical; conditions: lipidoid alone
# Method: (§1) Formulation of Lipidoid-Telodendrimer Nanoparticles. Nanoparticles were formed by mixing lipidoids and/or telodendrimers at required mass ratios in a solution of 90% ethanol and 10% 10 mM sodium citrate (by volume). Particle solutions were diluted with 10 times volume of phosphate buffered saline (PBS, 1×), and dialyzed against PBS (1×) for 4 h. The particle solution was then mixed with proteins at a ratio of 1/10 (protein/nanoparticle, w/w) to form nanoparticle-protein complex. The complex solution was then stored in sealed vessels at 4° C. for 1 day before use. For Mcl-1 inhibitor-loaded nanoparticle preparation, the Mcl-1 inhibitor, lipidoids and telodendrimers were in a solution of 90% ethanol and 10% 10 mM sodium citrate (by volume). Particle solutions were diluted with 10 times volume of PBS, yielding Mcl-1 inhibitor-loaded lipidoid-telodendrimer nanoparticles.
# (§2) Characterization. Proton NMR spectrum was recorded on a Bruker AVANCE 600 MHz spectrometer. MALDI-TOF mass spectrum was recorded on a Bruker REFLEX-III instrument. Dynamic light scattering (DLS) studies were performed using a Zetatrac (Microtrac Inc.) instrument, and the area-based mean particle sizes were presented. Zeta potential measurements were carried out on a Malvern Nano-ZS zetasizer at room temperature. […] UV-vis spectra were recorded on a Thermo Scientific Nanodrop 2000c spectrophotometer.
# [3] = DLS hydrodynamic diameter of lipidoid-telodendrimer hybrid NPs; format: physicochemical; conditions: lipidoid alone
# Method: as §1, §2
# U87 cells [4] = assay: MTS cell viability assay on U87 cells; format: cell-based, human; conditions: 72 h continuous incubation
# Method: Cell Culture and MTS Assays. The human glioblastoma multiforme (GBM) cell lines U87 and LN229, as well as the colon cancer cell line HT-29 cell line were purchased from American Type Culture Collection (ATCC, Manassas, Va., U.S.A.). U138 cell line established from human patients diagnosed with GBM. All cells were cultured in McCoy's 5 A medium supplemented with 10% fetal bovine serum (FBS), 100 U/mL penicillin G, and […] streptomycin at 37° C. using a humidified 5% CO2 incubator. Various formulations of proteins with different dilutions were added to the plate and then incubated in a humidified 37° C., 5% CO2 incubator. After a 72 h continuous incubation, a mixture solution composed of CellTiter 96 AQueous MTS, and an electron coupling reagent, PMS, was added to each well according to the manufacturer's instructions. The cell viability was determined by measuring absorbance at 490 nm using a microplate reader (BioTek Synergy 2). Untreated cells served as the control. Results were shown as the average cell viability [100%×(ODtreat−ODblank)/(ODcontrol−ODblank)] of triplicate wells. The cells were also treated with blank nanoparticles in PBS (1×) and blank lipidoids in a mixture of cremophor/ethanol (v:v=1:1) with different dilutions and incubated for a total of 72 h to evaluate nanoparticle-related toxicity.
# HT-29 cells = assay: Cellular uptake of protein-incorporated nanoparticles, HT-29 cells; format: cell-based, human; conditions: 2 h at 37° C., FITC approx. 1 μg/mL
# Method: (§3) Cellular Uptake of Protein-Incorporated Nanoparticles. The cellular uptake and intracellular trafficking of the protein-incorporated nanoparticles were determined by fluorescence microscopy. FITC-BSA was used as a model protein. HT-29 and U87 cells were seeded in chamber slide with a density of 5×10^4 cells per well in 350 μL of McCoy's 5 A and cultured for 24 h. The original medium was replaced with free FITC-BSA and FITC-BSA-loaded nanoparticles at final FITC a concentration of 1 or 3 μg/mL at 37° C. After a 2 h incubation, the cells were washed three times with cold PBS (1×) and fixed with 4% formaldehyde for 10 min at room temperature, and the cell nuclei were stained with DAPI. The slides were mounted with cover slips and cells were imaged with a Leica fluorescence microscope or a Nikon FV1000 laser scanning confocal scanning microscope. The mean fluorescence density in cells (unit: pixel^−1) was calculated using the following equation: […]
# U87 cells [5] = assay: Cellular uptake of protein-incorporated nanoparticles, U87 cells; format: cell-based, human; conditions: 2 h at 37° C.
# Method: as §3
# [6] = Protein release from agarose gels (0.6% wt); format: physicochemical; conditions: FITC-BSA from agarose gels (0.6% wt) immersed in PBS
# Method: Protein Release from Agarose Gels. Free FITC-BSA and FITC-BSA-incorporated lipidoid-telodendrimer hybrid nanoparticles (1/10, FITC-BSA/nanoparticle, w/w) were loaded in agarose gels of a concentration of 0.6% wt. The sample-loaded agarose gels were immersed in PBS (1×) with shaking for protein release assays. The concentration of released FITC-BSA at various time points was measured by fluorescence spectroscopy employing a pre-established calibration equation. The release medium was replaced with fresh medium. The accumulated protein release was reported as the means for each triplicate sample.
molecule,measurement,setting,value
"free Cy5-BSA: near-infrared fluorescence dye-labeled BSA (Cy5-BSA), model protein",distribution in brain sections containing U87 tumors (fluorescence),[1],no obvious fluorescent signals
"CCCCCCCCCCCCCCC(O)CN(C)CCCN(C)CC(O)CCCCCCCCCCCCCC (centres unmarked) [lipidoid, 1,1′-(propane-1,3-diylbis(methylazanediyl))bis(hexadecan-2-ol)]",ζ-potential of lipidoid NPs,[2],+8 mV
same,particle size of lipidoid NPs,[3],~129 nm
same,cytotoxicity of blank nanoparticles / lipidoid,U87 cells [4],toxicity was observed
"free FITC-BSA: fluorescein isothiocyanate (FITC) labeled BSA, model protein","cellular uptake efficiency (semi-quantitative, mean fluorescence intensity)",HT-29 cells,closes to zero
same,"cellular uptake efficiency (semi-quantitative, mean fluorescence intensity)",U87 cells [5]; FITC approx. 1 μg/mL,closes to zero
same,cellular uptake (confocal laser fluorescence microscopy),U87 cells [5]; FITC approx. 3 μg/mL,very low
same,time within which ~50% of the proteins released,[6],≤ 2 h
